Assay results published in patent US11878015B2, “Piperidine-substituted Mnk inhibitors and methods related thereto” (eFFECTOR Therapeutics Inc., priority 2017, dated 2024).
Read-outs that look alike come from different tables or passages of the source.

How the values were obtained:
Phosphorylated eIF4E = experiment: peIF4E signaling cellular assay (CisBio peIF4E HTRF); type: cell-based; conditions: 2 hrs incubation at 37° C., 12-point curve 20 μM to 0.1 nM; read-out: pEI4IE signaling activity
Method: Phosphorylated eIF4E is assayed using the CisBio peIF4E HTRF® assay kit (CisBio, catalogue No. 64EF4PEG). Cells are plated in 96-well tissue-culture treated plate in appropriate growth medium (90 μL). Compounds (10×) are diluted using 3-fold serial dilutions in cell culture medium and added to cells. Plates are incubated for 2 hrs at 37° C. The cell supernatant is carefully removed either by aspirating supernatant or by flicking the plate. Immediately 50 μL of supplemented lysis buffer (1×) is added and incubated for at least 30 minutes at room temperature under shaking. After homogenization by pipeting up and down, 16 μL of cell lysate is transferred from the 96-well cell-culture plate to a 384-well small volume white plate. 4 μL of premixed antibody solutions (vol/vol) is prepared in the detection buffer and added. The plate is covered with a plate sealer and incubated overnight at room temperature. The fluorescence emissions at two different wavelengths are read (665 nm and 620 nm) on a Wallac Victor2. Emission ratios are converted into percent inhibitions and imported into GraphPad Prism software. […] IC50 values are determined using a nonlinear regression model available in GraphPad Prism 5.
To this end, IC50 values of less than 0.001 μM are labelled as “+++”, from 0.001 to 0.01 μM are labelled as “++”, and greater than 0.01 μM are labelled as “+” (NA means “not available”).

[1] = High throughput thermodynamic solubility procedure; type: physicochemical; conditions: for solubility in fasted state simulated gastric fluid (FaSSGF), in words: pH value of 1.6
Method: In a 96-well plate, 10 mM DMSO stocks (50-100 uL) of each compound were dried under heated nitrogen flow using a SPE-96 plate dryer (upper flow rate=50 L/min, temperature=60° C., lower flow rate=20 L/min, temperature=80° C.). […] Compounds prepared as the free base were assessed in conditions with and without one equivalent of TFA added. The theoretical maximum concentrations of the aqueous solutions were 10 mM. Each well was capped and incubated for a period of 18 hours at room temperature or 37° C. Mixing of the solutions during the incubation period was performed by either shaking the plate at 750 rpm or adding StirStix (stainless steel capillaries) and agitating the mixture using a rotary magnetic tumble stirrer. After the incubation period, aliquots from each well were filtered. Solubility of all samples were quantified following comparison to standards of known concentration by HPLC-UV.

PD-1 = PD-1 (CD279) expression on PHA/PMA-activated Jurkat T cells, flow cytometry; type: cell-based; conditions: Homo sapiens, percentage of inhibition of PD-1 positive cells at 10 μM, 48 hours
Method: To examine the effect of MNK inhibitors on PD-1 expression, Jurkat cells (Clone E6.1, ATCC, transformed T cells) were used, which express PD-1 when activated through T cell receptor (TCR) signaling. Briefly, Jurkat cells were grown in 1×RPMI with 1×Pen/Strep, and 10% FBS, then about 3×10^6 Jurkat cells were activated in presence of 1 μg/mL PHA (Sigma) and 50 ng/mL PMA (Sigma). Test Cells were treated simultaneously with various concentrations of an MNK inhibitor (0, 0.01, 0.1, 1, 3 and 10 μM). After 48 hours, culture supernatants were harvested and examined via sandwich ELISA for the presence of IL-2 using human IL-2 ELISA DuoSet (R&D Systems, Minneapolis, Minn.). The level of PD-1 on Jurkat cells was examined by incubating with human FcR block, then contacted with allophycocyanin (APC) conjugated anti-PD-1 antibody (5 μl per 100 μl volume of test, Biolegend, San Diego, CA) for 25 minutes at 4° C., without washing the cells, fixable dead cell stain (1:10,000; BD Biosciences, San Jose, CA) was added and incubated further for 10 minutes at 4° C. Cells were washed two times with flow buffer, and finally cells were fixed with fixation buffer for 15 minutes at 4° C. After fixation, cells were washed twice with flow buffer and re-suspended in flow buffer and assessed for fluorescence using BD Accuri C6 flow cytometer. Data were analyzed using the C6 cytometer software (BD Biosciences, San Jose, CA) or Attune Nxt Cytometer (Invitrogen, Carlsbad, CA).
Activation of Jurkat T cells with PHA and PMA induced the expression of PD-1 on the cell surface of about 25-30% of the stimulated Jurkat cells as compared to uninduced cells (Unstim) and induced a 1,000-fold increase in IL-2 cytokine production, respectively. […] Lastly, MNK inhibition by various different MNK inhibitors had no effect on cell viability. […] To this end, percentage of inhibition of PD-1 positive cells (10 μM) of more than 50% are labelled as “+++”, from 10% to 50% are labelled as “++”, and less than 10% are labelled as “+” (NA means “not available”).

[2] = Fasted-State Simulated Intestinal Fluid (FaSSIF), pH 6.5, fassif, thermodynamic from solid, Fasted-State Simulated Intestinal Fluid, 18 hours incubation, theoretical maximum 10 mM, read-out: Aqueous Solubility FaSSIF (pH 6.5)
[3] = thermodynamic from solid, deionized water, 18 hours incubation, theoretical maximum 10 mM, read-out: Aqueous Solubility DI H2O

## Cc1cc(Nc2ncnc(N)c2C)c(=O)n2c1C(=O)NC21CCCN(CCC(F)(F)F)C1 (stereo not drawn) [Compound 3E]
Phosphorylated eIF4E
  IC50: > 10 nM

## Cc1cc(Nc2ncnc(N)c2Cl)c(=O)n2c1C(=O)NC21CCCN2CCCC21 (stereo not drawn) [Compound 3P]
Phosphorylated eIF4E
  IC50: < 1 nM

## Cc1cc(Nc2ncnc(N)c2C)c(=O)n2c1C(=O)NC21CCCN(C(C)(C)C)C1 (stereo not drawn) [Compound 3V]
Phosphorylated eIF4E
  IC50: > 10 nM
[1]; [2]
  solubility at 18 h: 107 µg/mL

## Cc1cc(Nc2ncnc(N)c2C)c(=O)n2c1C(=O)NC21CNCCC1(C)C (stereo not drawn) [Compound 3T]
PD-1
  inhibition at 10 µM: 10 to 50%
Phosphorylated eIF4E
  IC50: > 10 nM
[1]; [2]
  solubility at 18 h: 500 µM
[1]; [3]
  solubility at 18 h: 10000 µM

## Cc1cc(Nc2ncnc(N)c2Cl)c(=O)n2c1C(=O)NC21CCCN(CCC(F)(F)F)C1 (stereo not drawn) [Compound 3F]
Phosphorylated eIF4E
  IC50: 1 to 10 nM
[1]; [3]
  solubility at 18 h: 240 µM

## Cc1cc(Nc2ncnc(N)c2C)c(=O)n2c1C(=O)NC21CCCN2CCCC21 (stereo not drawn) [Compound 3O]
Phosphorylated eIF4E
  IC50: < 1 nM

## Cc1cc(Nc2ncnc(N)c2C)c(=O)n2c1C(=O)N[C@@]21CCCN(C)C1 (stereo in doubt) [Compound 1Fb, (S)-6-((6-amino-5-methylpyrimidin-4-yl)amino)-1′,8-dimethyl-2H-spiro[imidazo[1,5-a]pyridine-3,3′-piperidine]-1,5-dione]
PD-1
  inhibition at 10 µM: 10 to 50%
Phosphorylated eIF4E
  IC50: 1 to 10 nM
[1]
  solubility in fasted state simulated gastric fluid (FaSSGF), in words: excellent solubility
[1]; [2]
  solubility at 18 h: 88 µg/mL
[1]; [3]
  solubility at 18 h: > 1850 µg/mL

## Cc1cc(Nc2ncnc(N)c2Cl)c(=O)n2c1C(=O)NC21CCCN(C(C)C)C1 (stereo not drawn) [Compound 3R]
Phosphorylated eIF4E
  IC50: < 1 nM
[1]; [2]
  solubility at 18 h: 68 µg/mL

## Cc1cc(Nc2ncnc(N)c2Cl)c(=O)n2c1C(=O)NC21CCN(CCF)CC1 [Compound 3CC]
PD-1
  inhibition at 10 µM: 10 to 50%
Phosphorylated eIF4E
  IC50: 1 to 10 nM
[1]; [2]
  solubility at 18 h: 40 µM
[1]; [3]
  solubility at 18 h: 770 µM

## Cc1cc(Nc2ncnc(N)c2Cl)c(=O)n2c1C(=O)NC21CCCN(CC2CC2)C1 (stereo not drawn) [Compound 3J]
Phosphorylated eIF4E
  IC50: 1 to 10 nM

## Cc1cc(Nc2ncnc(N)c2C#N)c(=O)n2c1C(=O)N[C@@]21CCCN(C)C1 (single isomer, unassigned) [Compound 2Fb]
PD-1
  inhibition at 10 µM: 10 to 50%
Phosphorylated eIF4E
  IC50: > 10 nM
[1]
  solubility in fasted state simulated gastric fluid (FaSSGF), in words: excellent solubility
[1]; [2]
  solubility at 18 h: 151 µg/mL
[1]; [3]
  solubility at 18 h: 1770 µg/mL

## Cc1cc(Nc2ncnc(N)c2C)c(=O)n2c1C(=O)NC21CCCN(C(C)C)C1 (stereo not drawn) [Compound 3Q]
Phosphorylated eIF4E
  IC50: 1 to 10 nM

## Cc1cc(Nc2ncnc(N)c2C)c(=O)n2c1C(=O)NC21CCN(CC2(F)CC2)CC1 [Compound 3HH]
PD-1
  inhibition at 10 µM: < 10%
Phosphorylated eIF4E
  IC50: 1 to 10 nM
[1]; [2]
  solubility at 18 h: 18 µM

## Cc1cc(Nc2ncnc(N)c2Cl)c(=O)n2c1C(=O)N[C@]21CCCNC1 [Compound 3K]
PD-1
  inhibition at 10 µM: > 50%
Phosphorylated eIF4E
  IC50: > 10 nM
[1]
  solubility in fasted state simulated gastric fluid (FaSSGF), in words: excellent solubility
[1]; [2]
  solubility at 18 h: 158 µg/mL
[1]; [3]
  solubility at 18 h: 1530 µg/mL

## Cc1cc(Nc2ncnc(N)c2C)c(=O)n2c1C(=O)NC21CCCN(C)C1 (racemic) [rac-1F, 6-((6-amino-5-methylpyrimidin-4-yl)amino)-1′,8-dimethyl-2H-spiro[imidazo[1,5-a]pyridine-3,3′-piperidine]-1,5-dione]
PD-1
  inhibition at 10 µM: 10 to 50%
Phosphorylated eIF4E
  IC50: 1 to 10 nM
[1]
  solubility in fasted state simulated gastric fluid (FaSSGF), in words: excellent solubility
[1]; [2]
  solubility at 18 h: 240 µM
[1]; [3]
  solubility at 18 h: 4300 µM

## Cc1cc(Nc2ncnc(N)c2Cl)c(=O)n2c1C(=O)NC21CCCN(C(C)(C)C)C1 (stereo not drawn) [Compound 3W]
Phosphorylated eIF4E
  IC50: 1 to 10 nM
[1]; [2]
  solubility at 18 h: 593 µg/mL

## Cc1cc(Nc2ncnc(N)c2C)c(=O)n2c1C(=O)NC21CCCNC1 (stereo not drawn) [Compound 3B]
Phosphorylated eIF4E
  IC50: > 10 nM

## Cc1cc(Nc2ncnc(N)c2C)c(=O)n2c1C(=O)NC21CCN(CC(C)(C)F)CC1 [Compound 3GG]
Phosphorylated eIF4E
  IC50: 1 to 10 nM

## Cc1cc(Nc2ncnc(N)c2Cl)c(=O)n2c1C(=O)NC21CCCN(CC(F)F)C1 (stereo not drawn) [Compound 3I]
Phosphorylated eIF4E
  IC50: < 1 nM

## Cc1cc(Nc2ncnc(N)c2C)c(=O)n2c1C(=O)NC21CCCN(CC2CC2)C1 (stereo not drawn) [Compound 3H]
Phosphorylated eIF4E
  IC50: > 10 nM

## Cc1cc(Nc2ncnc(N)c2Cl)c(=O)n2c1C(=O)NC21CC(C)N(C)C(C)C1 (stereo not drawn) [Compound 3EE]
PD-1
  inhibition at 10 µM: > 50%
Phosphorylated eIF4E
  IC50: 1 to 10 nM

## Cc1cc(Nc2ncnc(N)c2Cl)c(=O)n2c1C(=O)NC21CCCCC1.Cl [Compound 4A, 6′-((6-amino-5-chloropyrimidin-4-yl)amino)-8′-methyl-2′H-spiro[cyclohexane-1,3′-imidazo[1,5-a]pyridine]-1′,5′-dione Hydrochloride, reference compound]
PD-1
  inhibition at 10 µM: > 50%
[1]; [2]
  solubility at 18 h: 45 µM
[1]; thermodynamic from solid, deionized water, 18 hours incubation, theoretical maximum 10 mM
  solubility in DI water at 18 h: 0.3 mM

## Cc1cc(Nc2ncnc(N)c2Cl)c(=O)n2c1C(=O)NC21CCN(C2CC2)CC1 [Compound 3Z]
Phosphorylated eIF4E
  IC50: 1 to 10 nM

## Cc1cc(Nc2ncnc(N)c2C#N)c(=O)n2c1C(=O)NC21CCCNC1 (stereo not drawn) [Compound 3U]
Phosphorylated eIF4E
  IC50: > 10 nM

## Cc1cc(Nc2ncnc(N)c2Cl)c(=O)n2c1C(=O)N[C@@]21CCCN(C)C1 [Compound 3X]
Phosphorylated eIF4E
  IC50: < 1 nM
[1]
  solubility in fasted state simulated gastric fluid (FaSSGF), in words: excellent solubility

## Cc1cc(Nc2ncnc(N)c2Cl)c(=O)n2c1C(=O)N[C@]21CCCN(C)C1 [Compound 3Y]
Phosphorylated eIF4E
  IC50: < 1 nM
[1]
  solubility in fasted state simulated gastric fluid (FaSSGF), in words: excellent solubility

## CCN1CCCC2(C1)NC(=O)c1c(C)cc(Nc3ncnc(N)c3C)c(=O)n12 (stereo not drawn) [Compound 3N]
Phosphorylated eIF4E
  IC50: 1 to 10 nM

## Cc1cc(Nc2ncnc(N)c2C)c(=O)n2c1C(=O)NC21CCCN(CC(F)F)C1 (stereo not drawn) [Compound 3G]
Phosphorylated eIF4E
  IC50: 1 to 10 nM

## Cc1cc(Nc2ncnc(N)c2Cl)c(=O)n2c1C(=O)NC21CCN(C)C(C)(C)C1 (stereo not drawn) [Compound 3FF]
PD-1
  inhibition at 10 µM: 10 to 50%
Phosphorylated eIF4E
  IC50: < 1 nM

## Cc1cc(Nc2ncnc(N)c2Cl)c(=O)n2c1C(=O)NC21CCCN(C)C1 (stereo not drawn) [Compound 3D]
Phosphorylated eIF4E
  IC50: 1 to 10 nM
[1]
  solubility in fasted state simulated gastric fluid (FaSSGF), in words: excellent solubility
[1]; [2]
  solubility at 18 h: 110 µM
[1]; [3]
  solubility at 18 h: 3300 µM

## Cc1cc(Nc2ncnc(N)c2Cl)c(=O)n2c1C(=O)NC21CCN(CCC(F)(F)F)CC1 [Compound 3BB]
PD-1
  inhibition at 10 µM: < 10%
Phosphorylated eIF4E
  IC50: < 1 nM
